Values after ≈ are worked out from the molar mass of the structure shown.
Key:
Assay in all cases: ≥ marks a high value that may be exact or a test limit, other limits are often not marked, values filed in µg/mL are converted to µM
[1] = tested on: Enterococcus faecalis
[2] = tested on: Escherichia coli W3110
[3] = tested on: Pseudomonas aeruginosa PAK
[4] = tested on: Staphylococcus aureus
[5] = tested on: Streptococcus mutans UA159
[6] = tested on: Streptococcus sanguinis NY101
[7] = tested on: Streptococcus sobrinus ATCC 33478
[8] = tested on: Agrobacterium tumefaciens ATCC 15955
[9] = tested on: Escherichia coli 45849
[10] = tested on: Escherichia coli BL21AI
[11] = tested on: Escherichia coli D31
[12] = tested on: Escherichia coli DC2
[13] = tested on: Escherichia coli DSM 1103
[14] = tested on: Klebsiella pneumoniae 123132
[15] = tested on: Klebsiella pneumoniae DSM 681
[16] = tested on: Klebsiella pneumoniae K6 ATCC 700603
[17] = tested on: Micrococcus luteus ATCC 10240
[18] = tested on: Salmonella enterica subsp. enterica serovar Typhi S5
[19] = tested on: Salmonella enterica subsp. enterica serovar Typhimurium ATCC 700408
[20] = tested on: Acinetobacter baumannii KCTC 2508
[21] = tested on: Acinetobacter baumannii
[22] = tested on: Bacillus subtilis ATCC 6633
[23] = tested on: Escherichia coli ATCC 33694
[24] = tested on: Candida albicans ATCC 90112
[25] = tested on: Escherichia coli ATCC 25922
[26] = tested on: Proteus mirabilis
[27] = tested on: Pseudomonas aeruginosa ATCC 27853
[28] = tested on: Staphylococcus aureus ATCC 25923
[29] = tested on: Staphylococcus epidermidis
[30] = tested on: Stenotrophomonas maltophilia ATCC 13637
[31] = tested on: Streptococcus pyogenes
[32] = tested on: Bacillus megaterium Bm11
[33] = tested on: Escherichia coli D21
[34] = tested on: Micrococcus luteus Ml11
[35] = tested on: Proteus vulgaris OX19 ATCC 6380
[36] = tested on: Pseudomonas aeruginosa OT97
[37] = tested on: Shigella flexneri ATCC 203
[38] = tested on: Staphylococcus aureus JC-1
[39] = tested on: Fusarium haematococcum 160.2.2
[40] = tested on: Neurospora crassa CBS 327-54

CC[C@H](C)[C@H](NC(=O)[C@H](Cc1ccccc1)NC(=O)[C@H](Cc1cnc[nH]1)NC(=O)[C@H](CCCCN)NC(=O)[C@@H](NC(=O)[C@H](Cc1ccccc1)NC(=O)[C@@H](NC(=O)[C@H](C)NC(=O)[C@H](CO)NC(=O)[C@H](Cc1ccccc1)NC(=O)[C@H](Cc1cnc[nH]1)NC(=O)[C@H](CC(C)C)NC(=O)[C@H](Cc1cnc[nH]1)NC(=O)[C@H](Cc1ccccc1)NC(=O)[C@H](Cc1cnc[nH]1)NC(=O)[C@@H](N)Cc1ccccc1)[C@@H](C)O)[C@@H](C)CC)C(=O)N[C@@H](Cc1cnc[nH]1)C(=O)N[C@@H](CCCN=C(N)N)C(=O)N[C@@H](Cc1ccccc1)C(N)=O [FHFHLHFSATFIKHFIHRF]
MIC [1]: 25.3 µM (≈ 62.5 µg/mL) | MIC [2]: ≥ 50.6 µM | MIC [3]: ≥ 50.6 µM | MIC [4]: 50.6 µM (≈ 125 µg/mL) | MIC [5]: 6.48 µM (≈ 16 µg/mL) | MIC [6]: 25.3 µM (≈ 62.5 µg/mL) | MIC [7]: ≥ 101 µM

CC[C@H](C)[C@H](NC(=O)[C@H](CCCN=C(N)N)NC(=O)[C@@H]1CCCN1C(=O)[C@H](Cc1cnc[nH]1)NC(=O)[C@@H]1CCCN1C(=O)[C@@H]1CCCN1C(=O)[C@H](CCCN=C(N)N)NC(=O)[C@@H]1CCCN1C(=O)[C@H](CCC(N)=O)NC(=O)[C@@H]1CCCN1C(=O)[C@H](CC(C)C)NC(=O)[C@H](Cc1ccc(O)cc1)NC(=O)[C@@H](NC(=O)[C@@H]1CCCN1C(=O)[C@H](CCCN=C(N)N)NC(=O)[C@H](CC(N)=O)NC(=O)[C@H](CC(N)=O)NC(=O)CN)C(C)C)C(N)=O [GNNRPVYLPQPRPPHPRI]
MIC [8]: 1.23 µM (≈ 2.6 µg/mL) | MIC [9]: 7.59 µM (≈ 16 µg/mL) | MIC [10]: 1.85 µM (≈ 3.91 µg/mL) | MIC [11]: ≥ 60.7 µM | MIC [12]: 3.7 µM (≈ 7.81 µg/mL) | MIC [13]: 1.85 µM (≈ 3.91 µg/mL) | MIC [14]: 15.2 µM (≈ 32 µg/mL) | MIC [15]: 7.41 µM (≈ 15.6 µg/mL) | MIC [16]: ≥ 60.7 µM | MIC [17]: 0.925 µM (≈ 1.95 µg/mL) | MIC [18]: 15.2 µM (≈ 32 µg/mL) | MIC [19]: 1.9 µM (≈ 4 µg/mL)

CC[C@H](C)[C@H](NC(=O)CNC(=O)[C@@H](NC(=O)[C@H](CCCCN)NC(=O)[C@H](CCCCN)NC(=O)[C@H](Cc1ccccc1)NC(=O)[C@H](CC(C)C)NC(=O)[C@H](CCCCN)NC(=O)[C@H](Cc1c[nH]c2ccccc12)NC(=O)[C@@H](N)CCCCN)[C@@H](C)CC)C(=O)NCC(=O)N[C@@H](C)C(=O)N[C@H](C(=O)N[C@@H](CC(C)C)C(=O)N[C@@H](CCCCN)C(=O)N[C@H](C(=O)N[C@@H](CC(C)C)C(=O)N[C@H](C(=O)N[C@H](C(=O)NCC(N)=O)[C@@H](C)O)[C@@H](C)O)C(C)C)C(C)C [KWKLFKKIGIGAVLKVLTTG]
MIC [20]: 3.12 µM (≈ 6.86 µg/mL) | MIC [21]: 4.42 µM (≈ 9.71 µg/mL) | MIC [22]: 1.1 µM (≈ 2.43 µg/mL) | MIC [23]: 8.84 µM (≈ 19.4 µg/mL)

CC(C)C[C@H](NC(=O)CNC(=O)[C@H](CCCCN)NC(=O)[C@H](CC(C)C)NC(=O)[C@H](CC(N)=O)NC(=O)[C@@H](N)CC(C)C)C(=O)N[C@@H](Cc1ccccc1)C(=O)N[C@@H](CCCCN)C(=O)N[C@@H](CCCCN)C(=O)N[C@H](C(=O)N[C@@H](C)C(=O)N[C@@H](CO)C(=O)N[C@@H](CC(C)C)C(=O)N[C@@H](CC(C)C)C(=O)N[C@H](C(=O)O)[C@@H](C)O)C(C)C [LNLKGLFKKVASLLT]
MIC [22]: 30 µM (≈ 49.4 µg/mL) | MIC [24]: 7.5 µM (≈ 12.3 µg/mL) | MIC [25]: 30 µM (≈ 49.4 µg/mL) | MIC [17]: 30 µM (≈ 49.4 µg/mL) | MIC [26]: ≥ 60 µM | MIC [27]: 30 µM (≈ 49.4 µg/mL) | MIC [28]: > 60 µM | MIC [29]: 30 µM (≈ 49.4 µg/mL) | MIC [30]: 15 µM (≈ 24.7 µg/mL) | MIC [31]: 30 µM (≈ 49.4 µg/mL)

CC[C@H](C)[C@H](NC(=O)[C@@H]1CCCN1C(=O)[C@H](CCCN=C(N)N)NC(=O)[C@@H]1CCCN1C(=O)[C@H](CCCN=C(N)N)NC(=O)[C@H](Cc1ccc(O)cc1)NC(=O)[C@H](CC(N)=O)NC(=O)[C@@H]1CCCN1C(=O)[C@H](CCCN=C(N)N)NC(=O)[C@@H]1CCCN1C(=O)[C@@H](N)CCCN=C(N)N)C(=O)N[C@@H](Cc1ccc(O)cc1)C(=O)N[C@@H](CCCN=C(N)N)C(=O)N1CCC[C@H]1C(N)=O [RPRPNYRPRPIYRP]
MIC [32]: 1.03 µM (≈ 1.9 µg/mL) | MIC [22]: 1.06 µM (≈ 1.95 µg/mL) | MIC [33]: 2.12 µM (≈ 3.9 µg/mL) | MIC [34]: 5.44 µM (≈ 9.99 µg/mL) | MIC [35]: 4.24 µM (≈ 7.8 µg/mL) | MIC [36]: 4.24 µM (≈ 7.8 µg/mL) | MIC [37]: 0.533 µM (≈ 0.98 µg/mL) | MIC [38]: 4.24 µM (≈ 7.8 µg/mL)

CC[C@H](C)[C@H](NC(=O)[C@H](CCCN=C(N)N)NC(=O)[C@H](CCC(=O)O)NC(=O)[C@H](CC(=O)O)NC(=O)CNC(=O)[C@H](CCCN=C(N)N)NC(=O)[C@H](CC(C)C)NC(=O)[C@@H](N)[C@@H](C)O)C(=O)N[C@@H](CC(C)C)C(=O)N[C@@H](CO)C(=O)N[C@H](C(=O)N[C@@H](CC(C)C)C(=O)N[C@@H](CCCN=C(N)N)C(=O)N[C@@H](Cc1cnc[nH]1)C(=O)N[C@@H](CCC(N)=O)C(=O)N[C@@H](CC(N)=O)C(=O)N[C@@H](CC(C)C)C(=O)N[C@@H](CC(C)C)C(=O)N[C@@H](CCCCN)C(=O)N[C@@H](CCC(=O)O)C(=O)O)[C@@H](C)CC [TLRGDERILSILRHQNLLKE]
MIC [39]: 30 µM (≈ 72.1 µg/mL) | MIC [40]: ≥ 100 µM

Source: DBAASP
